A short description of assay [1]: Inhibition of Xenopus laevis Aurora kinase B.
Assay [2] has as its target T1, Aurora kinase C (Homo sapiens, UniProt Q9UQB9).
T1 sequence (Q9UQB9 whole entry): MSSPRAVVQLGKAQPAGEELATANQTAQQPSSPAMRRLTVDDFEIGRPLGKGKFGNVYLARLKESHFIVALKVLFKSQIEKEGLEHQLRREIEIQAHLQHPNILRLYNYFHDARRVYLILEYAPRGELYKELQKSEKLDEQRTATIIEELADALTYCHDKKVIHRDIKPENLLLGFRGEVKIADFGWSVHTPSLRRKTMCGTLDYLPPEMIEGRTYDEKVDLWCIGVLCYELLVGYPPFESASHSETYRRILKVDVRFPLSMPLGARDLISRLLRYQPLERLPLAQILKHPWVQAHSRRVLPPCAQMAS
Kind of assay: Inhibition of human Aurora C.

A short description of assay [3]: Antitumor activity against human Fuji cells xenografted in mouse assessed as reduction in tumor volume. It is filed as functional. More on the design: scale not given: the % may be the effect or the level left.
Assay [4] can be described thus: Antitumor activity against human Fuji cells xenografted in mouse assessed as reduction in tumor weight. Also on record: scale not given: the % may be the effect or the level left. The assay is classed as functional. A general note: Xenograft models place foreign cells or tissue in a host animal.
Assay [5] relates to A-375. Description: Antitumor activity against human A-375 cells xenografted in mouse assessed as tumor growth inhibition. It is filed as functional.

On to `CCNC(=O)C#Cc1ccc2c(c1)NC(=O)/C2=C(\Nc1ccc(CN(C)C)cc1)c1ccccc1`, for which the IC50 in assay [1] was 3 nM; in assay [2], 15 nM.

For the molecule `CN(C)S(=O)(=O)c1ccc2c(c1)/C(=C/c1cc3c([nH]1)CCCC3)C(=O)N2`, the Activity in assay [3] is recorded as 16%; in assay [4], 13%.

For the molecule `Nc1nc(Nc2ccc(S(N)(=O)=O)cc2)nn1C(=O)c1c(F)cccc1F` [JNJ-7706621], in assay [5], the TGI is 95%.

For orientation: IC50 means the concentration needed to halve the response being measured. What is called TGI is the reduction of tumour growth relative to the control group.
